Results taken from patent publication US6001815A, “Depsipeptides containing N-substituted glycine residue” (Nisshin Flour Milling Co., Ltd., priority 1997, dated 1999).
Where a SMILES comes first, the peptide text is derived from it. [ ]: non-standard residue; d: D form. The star is where a group is joined. Fmoc = O=C(OCC1c2ccccc2-c2ccccc21)*; X1 = CCCCCCCCCCCC(CC(=O)O)O*; NBuGly = CCCCNCC(=O)O

Test system: apolipoprotein E production in Hep G2 cells
Experiment: Productivity of apolipoprotein E in Hep G2 cells, determined by enzyme immunoassay
Format: cell-based, human
Details: Hep G2 culture supernatant, methanol control defined as 100
Procedure: It will be shown below that the depsipeptides of the invention may influence upon the productivity of apolipoprotein E in Hep G2 cells, together with the test procedure as used.
First, Hep G2 cells of 1×10^5 cells were suspended in Dulbecco's modified Eagle medium (manufactured by Nissui Seiyaku Co., Ltd.; hereinafter referred to as "D-MEM medium") containing 10% fetal bovine serum and 1 ml each of the suspension was poured into a 24-well tissue culture plate. The cells were cultivated at 37° C. under atmosphere of a mixed gas composed of 5% carbon dioxide and 95% air. […]
It was again washed three times with 300 μl of PBS, 50 μl of the above sample solution (the medium for Hep G2 cells) was added and the mixture was allowed to stand at room temperature for 2 hours. […] The reaction was quenched by the addition of 100 μl of 2N sulfuric acid and absorbance was measured at 490 nm using absorbance at 650 nm as a control. An amount of apolipoprotein E in the present depsipeptide was determined upon the calibration curve drawn up when a commercially available apolipoprotein E (Chemicon Co., Ltd., U.S.A.) was used as a standard.
In the Test Example, the same procedure as described above was carried out except that methanol alone was added instead of the methanolic solution of the depsipeptide of this invention and an apolipoprotein E amount was measured as a control. […]

With `CCCCCCCCCCCC(CC(=O)O)OC(=O)CN(CCCC)C(=O)CN(CCCC)C(=O)[C@H](CC(=O)O)NC(=O)[C@@H](NC(=O)OCC1c2ccccc2-c2ccccc21)C(C)C` (some centres unmarked) [Compound 2] (Fmoc-VD[NBuGly][NBuGly]-X1) the “Relative amount of apolipoprotein E (%)” value (Conc. 1 μM) was 256% and the “Relative amount of apolipoprotein E (%)” value (Conc. 5 μM) was 389%.
